Measurements reported in US6291694A, “Process and intermediates useful to produce vitamin D analogs” (Hoffman-La Roche Inc., priority 2000, dated 2001).

Assay: pKa of alcohol additive in water
Format: physicochemical

Row | SMILES | pKa in water
1 | OC(C(F)(F)F)C(F)(F)F [formula 15b] | 9.13
2 | CC(O)(C(F)(F)F)C(F)(F)F [formula 15a] | 9.51
3 | OC(C(F)(F)F)(C(F)(F)F)C(F)(F)F [formula 15d, perfluoro-t-butanol] | 5.18
4 | OC(c1ccccc1)(C(F)(F)F)C(F)(F)F [formula 15c, 1,1,1,3,3,3-hexafluoro-2-phenyl-2-propanol] | 8.52
5 | OC(c1cccc(C(O)(C(F)(F)F)C(F)(F)F)c1)(C(F)(F)F)C(F)(F)F [Formula 16, 1,3-bis(1,1,1,3,3,3, -hexafluoro-2-hydroxypropyl)benzene] | 8.48
